The values below come from the kinase profiling compilation of Christmann-Franck et al. (2016).

Common to all, as to test: radiometric filter-binding kinase assay, Kinase HotSpot
Common to all, as to conditions: compound 0.5 µM; ATP 10 µM

Assay [1] has as its system MAP2K6 (human), P52564 [S207E/T211E].
The test system of assay [2] is MKNK1 (human), Q9BUB5 [T385D; 165-205 del].
For assay [3], the system named is FLT4 (human), P35916 [Q890H].
The subject of assay [4] is PRKCQ (human), Q04759 [P330L].

Sequence of MAP2K6 (human), P52564 [S207E/T211E] (P52564 whole entry S207E/T211E, looked up): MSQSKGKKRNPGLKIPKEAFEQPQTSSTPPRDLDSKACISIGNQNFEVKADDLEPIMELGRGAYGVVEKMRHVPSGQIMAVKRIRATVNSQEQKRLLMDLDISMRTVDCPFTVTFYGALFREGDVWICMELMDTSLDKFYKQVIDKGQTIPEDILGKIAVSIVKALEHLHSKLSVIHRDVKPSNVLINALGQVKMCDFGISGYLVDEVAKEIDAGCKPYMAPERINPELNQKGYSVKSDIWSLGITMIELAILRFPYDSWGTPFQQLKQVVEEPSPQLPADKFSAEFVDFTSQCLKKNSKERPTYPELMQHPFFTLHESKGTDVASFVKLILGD
Sequence of PRKCQ (human), Q04759 [P330L] (Q04759 whole entry P330L, looked up): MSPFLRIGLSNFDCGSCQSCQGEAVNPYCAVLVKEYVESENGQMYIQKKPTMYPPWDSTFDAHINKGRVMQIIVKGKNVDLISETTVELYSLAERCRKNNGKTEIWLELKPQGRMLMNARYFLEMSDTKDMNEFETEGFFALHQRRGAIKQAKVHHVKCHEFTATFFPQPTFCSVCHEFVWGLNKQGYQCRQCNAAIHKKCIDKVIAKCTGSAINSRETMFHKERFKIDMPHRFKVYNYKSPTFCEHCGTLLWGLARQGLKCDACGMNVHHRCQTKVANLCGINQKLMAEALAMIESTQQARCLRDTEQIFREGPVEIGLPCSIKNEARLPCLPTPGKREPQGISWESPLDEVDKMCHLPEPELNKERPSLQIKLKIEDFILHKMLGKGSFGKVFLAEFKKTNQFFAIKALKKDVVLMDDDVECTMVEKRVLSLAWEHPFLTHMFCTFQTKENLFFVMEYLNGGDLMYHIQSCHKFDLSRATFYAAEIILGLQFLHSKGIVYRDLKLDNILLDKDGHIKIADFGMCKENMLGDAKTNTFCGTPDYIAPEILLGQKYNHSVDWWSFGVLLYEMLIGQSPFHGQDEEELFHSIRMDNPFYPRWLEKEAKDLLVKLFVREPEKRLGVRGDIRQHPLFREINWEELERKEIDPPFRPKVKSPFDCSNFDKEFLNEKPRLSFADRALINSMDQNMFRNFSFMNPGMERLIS
Sequence of MKNK1 (human), Q9BUB5 [T385D; 165-205 del] (Q9BUB5 whole entry, looked up, stated change not applied): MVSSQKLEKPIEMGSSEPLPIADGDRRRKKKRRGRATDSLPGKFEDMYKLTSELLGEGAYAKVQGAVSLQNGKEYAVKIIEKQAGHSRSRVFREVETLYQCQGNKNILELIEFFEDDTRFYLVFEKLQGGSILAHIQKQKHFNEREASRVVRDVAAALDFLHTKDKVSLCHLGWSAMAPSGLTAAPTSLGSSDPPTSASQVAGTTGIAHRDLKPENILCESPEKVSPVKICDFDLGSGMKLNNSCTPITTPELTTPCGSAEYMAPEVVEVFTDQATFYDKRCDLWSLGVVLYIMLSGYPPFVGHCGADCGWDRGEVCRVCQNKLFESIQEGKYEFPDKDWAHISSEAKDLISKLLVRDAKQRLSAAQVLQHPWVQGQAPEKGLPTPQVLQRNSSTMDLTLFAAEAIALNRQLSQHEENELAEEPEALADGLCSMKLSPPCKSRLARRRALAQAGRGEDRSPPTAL
Sequence of FLT4 (human), P35916 [Q890H] (P35916 whole entry, looked up, stated change not applied): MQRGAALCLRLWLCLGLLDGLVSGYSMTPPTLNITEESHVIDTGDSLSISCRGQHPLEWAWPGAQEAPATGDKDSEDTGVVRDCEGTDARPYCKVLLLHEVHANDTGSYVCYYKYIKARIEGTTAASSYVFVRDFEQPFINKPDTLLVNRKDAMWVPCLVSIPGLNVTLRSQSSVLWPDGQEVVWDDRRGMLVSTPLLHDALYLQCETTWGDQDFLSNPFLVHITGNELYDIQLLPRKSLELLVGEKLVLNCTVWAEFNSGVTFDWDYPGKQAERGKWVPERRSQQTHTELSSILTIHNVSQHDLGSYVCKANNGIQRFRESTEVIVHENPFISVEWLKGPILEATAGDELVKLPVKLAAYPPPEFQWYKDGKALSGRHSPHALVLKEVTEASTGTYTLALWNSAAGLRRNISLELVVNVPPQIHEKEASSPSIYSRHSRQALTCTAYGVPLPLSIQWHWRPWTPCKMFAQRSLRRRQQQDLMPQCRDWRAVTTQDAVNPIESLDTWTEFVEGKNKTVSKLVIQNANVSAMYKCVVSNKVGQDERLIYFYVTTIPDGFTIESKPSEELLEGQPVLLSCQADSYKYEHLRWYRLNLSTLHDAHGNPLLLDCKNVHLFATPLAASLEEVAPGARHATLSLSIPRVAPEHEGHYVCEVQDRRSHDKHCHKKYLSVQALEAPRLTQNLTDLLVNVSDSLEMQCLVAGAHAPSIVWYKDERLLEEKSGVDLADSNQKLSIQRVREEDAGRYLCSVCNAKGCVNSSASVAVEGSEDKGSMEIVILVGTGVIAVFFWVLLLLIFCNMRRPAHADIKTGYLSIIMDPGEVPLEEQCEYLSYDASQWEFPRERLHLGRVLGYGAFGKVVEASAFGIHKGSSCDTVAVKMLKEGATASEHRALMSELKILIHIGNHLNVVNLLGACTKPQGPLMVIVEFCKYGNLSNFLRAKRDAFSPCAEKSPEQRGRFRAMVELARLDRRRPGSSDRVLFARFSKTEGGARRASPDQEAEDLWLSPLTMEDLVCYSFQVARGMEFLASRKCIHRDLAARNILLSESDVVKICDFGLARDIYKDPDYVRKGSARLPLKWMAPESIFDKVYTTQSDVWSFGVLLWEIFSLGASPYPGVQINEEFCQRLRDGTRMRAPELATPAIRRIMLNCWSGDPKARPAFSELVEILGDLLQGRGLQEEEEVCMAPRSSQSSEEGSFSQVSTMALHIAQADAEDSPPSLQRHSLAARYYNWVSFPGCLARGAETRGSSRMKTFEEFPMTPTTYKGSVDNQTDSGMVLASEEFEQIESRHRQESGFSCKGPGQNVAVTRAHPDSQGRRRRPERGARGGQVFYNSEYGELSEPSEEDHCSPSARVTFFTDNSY

Broadly, the residual activity is the signal under treatment as a percentage of the control signal. Turning to `O=C1Nc2ccccc2/C1=C1\Nc2ccccc2\C1=N/O`, the residual activity was found to be 83.5% in assay [1], 99.6% in assay [2], 53% in assay [3] and 99.1% in assay [4].

Take `Nc1ncnc2[nH]nc(Nc3ccc(F)cc3)c12`: the residual activity is 87.6% in assay [1], 75.2% in assay [2], 92.9% in assay [3] and 103% in assay [4].

`CC(=O)c1ccc(N2CCOCC2)cc1O`: the residual activity in assay [1] was found to be 94.2%; in assay [2], 102%; in assay [3] it was 112%; in assay [4], 99.5%.

With `CC(C)[C@H](CO)Nc1nc(Nc2cccc(Cl)c2)c2ncn(C(C)C)c2n1`, the residual activity in assay [1] stood at 105%; in assay [2], 79.8%; in assay [3], 110%; in assay [4] it was 127%.

For `O=C(Nc1ccc(Cl)cc1)c1ccccc1NCc1ccncc1`, the residual activity turned out to be 117% in assay [1], 118% in assay [2], 44.8% in assay [3] and 110% in assay [4].

In the case of `Cc1nc2cc3nc(-c4cccs4)cnc3cc2n1C`, the residual activity in assay [1] was determined as 104%; in assay [2], 92.7%; in assay [3], 86.2%; in assay [4], 100%.

Consider `CC(C)c1nn(-c2c(Cl)cccc2Cl)c2nc(Cc3ccc(OCCO)cc3)nc(O)c12`, for which the residual activity in assay [1] was 92.7%; in assay [2] it was 110%; in assay [3] it was 103%; in assay [4] it was 97.3%.

As for `O=c1cc(N2CCOCC2)oc2c(-c3ccccc3)cccc12`, the residual activity in assay [1] stood at 97.5%; in assay [2], 103%; in assay [3], 96.4%; in assay [4], 112%.

Turning to `Cc1ccc(NC(=O)c2ccc(CN3CCN(C)CC3)cc2)cc1Nc1nc(-c2cccnc2)cs1`, the residual activity in assay [1] is 96.5%; in assay [2], 90%; in assay [3], 100%; in assay [4] it was 103%.

Take `COc1cc2ncnc(Nc3cccc(Cl)c3)c2cc1OC`: the residual activity was 88.7% in assay [1], 80.8% in assay [2], 99.3% in assay [3] and 105% in assay [4].

`O=c1c(-c2ccc(F)cc2)c(-c2ccncc2)[nH]n1-c1ccc(Cl)cc1`: the residual activity in assay [1] is 79.4%; in assay [2], 93.9%; in assay [3], 91.5%; in assay [4], 119%.

For the compound `CC(C)(C)c1nc2c3ccc(F)cc3c3c(=O)[nH]ccc3c2[nH]1`, the residual activity in assay [1] came out at 89%; in assay [2], 101%; in assay [3], 71.2%; in assay [4], 66.8%.

Consider `CNC(=O)c1cc(Oc2ccc(NC(=O)Nc3ccc(Cl)c(C(F)(F)F)c3)cc2)ccn1`, for which the residual activity in assay [1] is 96.9%; in assay [2] it was 75.1%; in assay [3], 43%; in assay [4], 100%.

Take `O=C1NC(=O)C(c2c[nH]c3ccccc23)=C1c1c[nH]c2ccccc12`: the residual activity in assay [1] was 98%; in assay [2] it was 115%; in assay [3], 35.2%; in assay [4], 33.8%.

With `CSc1nc(-c2ccc(F)cc2)c(-c2ccnc(NC(C)c3ccccc3)c2)[nH]1` (centres undefined), the residual activity in assay [1] was 80.5%; in assay [2], 97.1%; in assay [3] it was 91.3%; in assay [4], 111%.

Regarding `c1ccc(-c2cnc(Nc3ccc(OCCN4CCCC4)cc3)s2)cc1`, the residual activity in assay [1] was found to be 93.6%; in assay [2], 64.7%; in assay [3], 64.4%; in assay [4] it was 91.2%.

On to `O=C1NC(=O)c2c1c1c3ccccc3n3c1c1c2c2ccccc2n1C1CCC3O1`, for which the residual activity in assay [1] is 19.3%; in assay [2] it was 48.6%; in assay [3], 4.97%; in assay [4] it was 43.2%.

Regarding `O=C1Cc2c([nH]c3ccc(Br)cc23)-c2ccccc2N1`, the residual activity in assay [1] is 95.3%; in assay [2] it was 98.4%; in assay [3], 78.7%; in assay [4], 114%.

`COc1cc2ncnc(Nc3ccc(F)c(Cl)c3)c2cc1OCCCN1CCOCC1`: the residual activity was found to be 90.1% in assay [1], 41.9% in assay [2], 92.2% in assay [3] and 85.9% in assay [4].

For the compound `Cc1cc2ncc(-c3ccccc3)nc2cc1C`, the residual activity in assay [1] is 91.1%; in assay [2] it was 80.3%; in assay [3], 115%; in assay [4] it was 97%.

Consider `COc1cc2ncc(-c3ccccc3)nc2cc1OC`, for which the residual activity worked out at 94.9% in assay [1], 104% in assay [2], 90.4% in assay [3] and 101% in assay [4].

Regarding `CCCNC(=O)Nc1ccc(Oc2ncnc3cc(OC)c(OC)cc23)cc1Cl`, the residual activity in assay [1] worked out at 106%; in assay [2], 95.2%; in assay [3], 38.5%; in assay [4], 102%.

`CCn1cnc2c(Nc3cccc(Cl)c3)nc(N[C@@H]3CCCC[C@@H]3N)nc21`: the residual activity in assay [1] was determined as 100%; in assay [2] it was 101%; in assay [3], 105%; in assay [4] it was 93.3%.

On to `CCOc1cc2ncnc(Nc3cccc(Br)c3)c2cc1OCC`, for which the residual activity in assay [1] is 92.6%; in assay [2], 46%; in assay [3] it was 88.1%; in assay [4], 89.2%.

As to `CCN(CC)CCNC(=O)c1c(C)[nH]c(/C=C2\C(=O)Nc3ccc(Cl)cc32)c1C`, the residual activity came out at 86.2% in assay [1], 75.4% in assay [2], 12.1% in assay [3] and 105% in assay [4].

For `CS(=O)c1ccc(-c2nc(-c3ccc(F)cc3)c(-c3ccncc3)[nH]2)cc1` (centres undefined), the residual activity in assay [1] was 102%; in assay [2], 98.5%; in assay [3] it was 119%; in assay [4], 111%.

In the case of `N#CC(C#N)=C(N)/C(C#N)=C/c1ccc(O)cc1`, the residual activity in assay [1] came out at 94%; in assay [2], 77.2%; in assay [3], 95.9%; in assay [4], 99.8%.

As for `Oc1ccc(Nc2nc(-c3ccc(Cl)cc3)cs2)cc1`, the residual activity turned out to be 94% in assay [1], 98.9% in assay [2], 101% in assay [3] and 123% in assay [4].

`CCC(=O)Nc1ccc2ncnc(Nc3cccc(Br)c3)c2c1`: the residual activity turned out to be 94.5% in assay [1], 82.8% in assay [2], 91.5% in assay [3] and 96.3% in assay [4].

For the compound `COc1cc2ncnc(Nc3ccc(O)c(Br)c3)c2cc1OC`, the residual activity in assay [1] came out at 84.9%; in assay [2], 32.7%; in assay [3] it was 48.5%; in assay [4] it was 92.8%.

With `CC(C)N(CCC(=O)c1ccc2ccccc2c1)Cc1ccccc1`, the residual activity in assay [1] came out at 93.2%; in assay [2], 105%; in assay [3], 94%; in assay [4], 122%.

Consider `O=C1NC(=O)c2c1c1c3ccccc3[nH]c1c1[nH]c3cc(Br)ccc3c21`, for which the residual activity in assay [1] was found to be 94.2%; in assay [2], 81.5%; in assay [3] it was 28%; in assay [4] it was 93.1%.

With `FC(F)(F)c1ccc(/C=C/c2nc(COc3ccc(CCCCn4ccnn4)cc3)co2)cc1`, the residual activity amounted to 100% in assay [1], 89.5% in assay [2], 98% in assay [3] and 99.9% in assay [4].

Take `Nc1nc(Nc2ccc(S(N)(=O)=O)cc2)nn1C(=S)Nc1c(F)cccc1F`: the residual activity was 62.7% in assay [1], 23.4% in assay [2], 3.75% in assay [3] and 15.1% in assay [4].

`N#C/C(=C1/Nc2ccccc2S1)c1ccnc(NCCc2cccnc2)n1`: the residual activity in assay [1] amounted to 92.5%; in assay [2] it was 90.2%; in assay [3], 86.1%; in assay [4] it was 104%.

Regarding `Cc1ccc(NC2=CC(=O)c3sc(C)nc3C2=O)cc1`, the residual activity in assay [1] was 90.4%; in assay [2], 117%; in assay [3] it was 95.7%; in assay [4] it was 93%.

Regarding `c1ccc(-c2n[nH]c3c2oc2ccccc23)cc1`, the residual activity in assay [1] was 92.9%; in assay [2], 96.2%; in assay [3], 108%; in assay [4], 83.8%.

For `Cc1[nH]c(/C=C2\C(=O)Nc3ccc(S(=O)(=O)N(C)c4cccc(Cl)c4)cc32)c(C)c1C(=O)N1CCN(C)CC1`, the residual activity turned out to be 91.9% in assay [1], 105% in assay [2], 55.1% in assay [3] and 107% in assay [4].

`CCOC(=O)c1c(C)[nH]c(/C=C2\C(=O)Nc3ccccc32)c1C`: the residual activity in assay [1] is 96.5%; in assay [2], 112%; in assay [3], 79.2%; in assay [4] it was 116%.

As to `Nc1ncnc2c1c(-c1ccc(Oc3ccccc3)cc1)cn2C1CCCC1`, the residual activity in assay [1] stood at 99.3%; in assay [2], 109%; in assay [3], 50.8%; in assay [4] it was 131%.

`CC(C)n1cnc2c(Nc3cccc(Cl)c3)nc(NCCO)nc21`: the residual activity amounted to 88.9% in assay [1], 98.7% in assay [2], 92.6% in assay [3] and 91.4% in assay [4].
